Experimental data: PMC4449373 (Clinical Pharmacokinetics, 2015)
Where two headings read alike, the source gives them in different places.

What was measured:
[1] = adult subjects with T2D, cited from earlier work
[2] = Population pharmacokinetic analysis; assay type: in vivo, human

Decrease in AUC24, pediatric age group ([2]; compared with an adult subject of the same weight and gender): 10%
SMILES: CCCCCCCCCCCCCCCC(=O)N[C@@H](CCC(=O)NCCCC[C@H](NC(=O)[C@H](C)NC(=O)[C@H](C)NC(=O)[C@H](CCC(N)=O)NC(=O)CNC(=O)[C@H](CCC(=O)O)NC(=O)[C@H](CC(C)C)NC(=O)[C@H](Cc1ccc(O)cc1)NC(=O)[C@H](CO)NC(=O)[C@H](CO)NC(=O)[C@@H](NC(=O)[C@H](CC(=O)O)NC(=O)[C@H](CO)NC(=O)[C@@H](NC(=O)[C@H](Cc1ccccc1)NC(=O)[C@@H](NC(=O)CNC(=O)[C@H](CCC(=O)O)NC(=O)[C@H](C)NC(=O)[C@@H](N)Cc1cnc[nH]1)[C@@H](C)O)[C@@H](C)O)C(C)C)C(=O)N[C@@H](CCC(=O)O)C(=O)N[C@@H](Cc1ccccc1)C(=O)N[C@H](C(=O)N[C@@H](C)C(=O)N[C@@H](Cc1c[nH]c2ccccc12)C(=O)N[C@@H](CC(C)C)C(=O)N[C@H](C(=O)N[C@@H](CCCNC(=N)N)C(=O)NCC(=O)N[C@@H](CCCNC(=N)N)C(=O)NCC(=O)O)C(C)C)[C@@H](C)CC)C(=O)O [liraglutide]
Mean decrease in glycated hemoglobin [HbA1c] ([1]; liraglutide 1.2 mg and 1.8 mg alone or in combination with other oral antidiabetic drugs and/or insulin): up to −1.5%
Safety and tolerability profile ([1]; liraglutide 1.2 mg and 1.8 mg): acceptable safety and tolerability profile
Mean weight loss ([1]; liraglutide 1.2 mg): ≤ -2.9 kg
Mean weight loss ([1]; liraglutide 1.8 mg): up to −3.4 kg
Geometric mean AUC24 lower at highest observed body weight (216 kg) ([2]; compared with exposure at reference body weight of 90 kg): 56%
Lower drug exposure (AUC24) for males ([2]; compared with the reference female subject of the same body weight): 31%
